Data from US20220389003A1, “4-SUBSTITUTED INDOLE AND INDAZOLE SULFONAMIDO DERIVATIVES AS PARG INHIBITORS” (IDEAYA BIOSCIENCES, INC., priority 2019, published 2022).
Where two headings read alike, the source gives them in different places.

Key:
[1] = tested on: HCC1806-XRCC1 KD (knock down) cells; assay: Cellular viability assay (Cell Titer-Glo); type: cell-based; conditions: HCC1806-shXRCC1 cells, 4 days of incubation, read-out: PARGi cell viability
Outline: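 XRCC1-knockdown HCC1806 cells seeded 24 h before dosing; 9-point 1:3 dilution from 30 μM top concentration, duplicates, 4-day incubation. Viability by CellTiter-Glo luminescence, normalized to DMSO wells as % of control; curves fit with 4-parameter inhibition model.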

PARG [2] = target: T1, PARG (Homo sapiens, UniProt Q86W56); assay: Inhibition of PARG enzymatic assay (TR-FRET enzymatic IC50 assay); type: biochemical; set-up: purchased Peak Proteins; conditions: hPARG 250 pM, biotinylated-PARylated PARP substrate 30 nM
T1 sequence (Q86W56 whole entry): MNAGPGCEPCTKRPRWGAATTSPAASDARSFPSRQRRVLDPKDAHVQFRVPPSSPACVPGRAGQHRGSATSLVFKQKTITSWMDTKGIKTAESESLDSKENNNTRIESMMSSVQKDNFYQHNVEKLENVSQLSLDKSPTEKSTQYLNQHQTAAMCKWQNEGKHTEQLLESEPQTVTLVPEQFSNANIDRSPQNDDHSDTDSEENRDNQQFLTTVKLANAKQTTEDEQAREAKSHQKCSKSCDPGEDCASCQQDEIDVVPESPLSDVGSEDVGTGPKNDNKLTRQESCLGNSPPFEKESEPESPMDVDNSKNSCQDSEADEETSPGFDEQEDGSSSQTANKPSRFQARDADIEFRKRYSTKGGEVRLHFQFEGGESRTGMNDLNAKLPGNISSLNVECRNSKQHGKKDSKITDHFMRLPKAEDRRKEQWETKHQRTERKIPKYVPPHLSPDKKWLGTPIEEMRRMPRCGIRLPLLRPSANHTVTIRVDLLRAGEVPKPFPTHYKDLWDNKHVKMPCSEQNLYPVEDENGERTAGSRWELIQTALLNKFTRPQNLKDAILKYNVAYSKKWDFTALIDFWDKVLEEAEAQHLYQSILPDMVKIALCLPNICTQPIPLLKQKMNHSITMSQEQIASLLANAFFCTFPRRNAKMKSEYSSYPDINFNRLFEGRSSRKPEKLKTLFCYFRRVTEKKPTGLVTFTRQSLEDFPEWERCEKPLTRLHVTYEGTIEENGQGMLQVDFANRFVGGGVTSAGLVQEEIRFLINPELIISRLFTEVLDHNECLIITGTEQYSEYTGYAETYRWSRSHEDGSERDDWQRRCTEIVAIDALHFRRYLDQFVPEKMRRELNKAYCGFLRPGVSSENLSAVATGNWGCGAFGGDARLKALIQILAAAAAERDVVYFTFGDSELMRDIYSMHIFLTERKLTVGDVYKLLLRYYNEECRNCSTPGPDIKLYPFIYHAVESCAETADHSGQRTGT
Outline: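 Compound preincubated 1 h with 250 pM His-tagged hPARG, then 30 nM biotinylated PARylated hPARP1 substrate added for 10 min; buffer 50 mM Tris-HCl pH 7.4, EDTA/EGTA, 1 mM DTT, 23° C. TR-FRET read after 1 h with anti-His ULight antibody and streptavidin-europium; inhibition scaled between DMSO and no-enzyme controls.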

PARG [3] = target: T1, PARG; assay: Inhibition of PARG cellular assay (PAR foci in HeLa cells after MMS); type: cell-based; set-up: endogenous in cells; host or cells: HeLa; conditions: compound 1 h then MMS 1 h
Outline: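 HeLa cells pretreated with compound for 1 h, then given MMS for a further 1 h, fixed and immunostained for PAR polymer. High-content imaging quantified nuclear PAR foci intensity (PAR Foci IC50) and percent cells with foci signal >1.3 (PAR % positive IC50).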

Row | IC50 ([1]; 96 h) | IC50 (PARG [2]) | IC50 (PARG [3]) | IC50 [1] | Compound
1 | 1 to 10 µM | 0.1 to 0.3 µM | 0.3 to 1 µM |  | COc1nccc(-c2cc(S(=O)(=O)NC3(C#N)CC3)cc3c2cnn3-c2nnc(C(F)F)s2)n1 [Example 21, 1-[({1-[5-(difluoromethyl)(1,3,4-thiadiazol-2-yl)]-4-(2-methoxypyrimidin-4-yl)-1H-indazol-6-yl}sulfonyl)amino]cyclopropanecarbonitrile]
2 | < 1 µM | ≤ 0.1 µM | ≤ 0.1 µM |  | CCN(C)C(=O)N1CCN(c2cc(S(=O)(=O)NC3(C#N)CC3)cc3c2cnn3-c2nnc(C(F)F)s2)CC1 [Example 32, [4-(1-[5-(difluoromethyl)(1,3,4-thiadiazol-2-yl)]-6-{[(cyanocyclopropyl)amino]sulfonyl}(1H-indazol-4-yl))piperazinyl]-N-ethyl-N-methylcarboxamide]
3 | 1 to 10 µM | ≤ 0.1 µM | 0.1 to 0.3 µM |  | Cc1nnc(-n2ncc3c(N4CCN(C(=O)C(C)C)CC4)cc(S(=O)(=O)NC4(C#N)CC4)cc32)s1 [Example 97, 1-[({1-(5-methyl(1,3,4-thiadiazol-2-yl))-4-[4-(2-methylpropanoyl)piperazinyl]-1H-indazol-6-yl}sulfonyl)amino]cyclopropanecarbonitrile]
4 | 10 to 20 µM | 1 to 10 µM | 0.3 to 1 µM |  | N#CC1(NS(=O)(=O)c2cc(N3CCC4(CC3)COC4)c3c(Cl)nn(-c4nnc(C(F)F)s4)c3c2)CC1 [Example 114, 1-[({1-[5-(difluoromethyl)(1,3,4-thiadiazol-2-yl)]-3-chloro-4-(2-oxa-7-azaspiro[3.5]non-7-yl)-1H-indazol-6-yl}sulfonyl)amino]cyclopropanecarbonitrile]
5 | < 1 µM | ≤ 0.1 µM | ≤ 0.1 µM |  | C[C@@H]1CN(c2cc(S(=O)(=O)NC3(C#N)CC3)cc3c2cnn3-c2nnc(C(F)F)s2)CCN1C(=O)N(C)C [Example 35, [(2R)-4-(1-[5-(difluoromethyl)(1,3,4-thiadiazol-2-yl)]-6-{[(cyanocyclopropyl)amino]sulfonyl}(1H-indazol-4-yl))-2-methylpiperazinyl]-N,N-dimethylcarboxamide]
6 | < 1 µM | ≤ 0.1 µM | ≤ 0.1 µM |  | CC(C)C(=O)N1CCN(c2cc(S(=O)(=O)NC3(C#N)CC3)cc3c2cnn3-c2nnc(C(F)F)s2)CC1 [Example 38, 1-[({1-[5-(difluoromethyl)(1,3,4-thiadiazol-2-yl)]-4-[4-(2-methylpropanoyl)piperazinyl]-1H-indazol-6-yl}sulfonyl)amino]cyclopropanecarbonitrile]
7 | 1 to 10 µM | 0.1 to 0.3 µM | 0.1 to 0.3 µM |  | C[C@H]1CN(c2cc(S(=O)(=O)NC3(C#N)CC3)cc3c2cnn3-c2nnc(C(F)F)s2)CCO1 [Example 103, (S)—N-(1-cyanocyclopropyl)-1-(5-(difluoromethyl)-1,3,4-thiadiazol-2-yl)-4-(2-methylmorpholino)-1H-indazole-6-sulfonamide]
8 | 20 to 30 µM | 0.1 to 0.3 µM | 0.3 to 1 µM |  | N#CC1(NS(=O)(=O)c2cc(N3CC4(COC4)C3)c3cnn(-c4nnc(C(F)F)s4)c3c2)CC1 [Example 45, 1-[({1-[5-(difluoromethyl)(1,3,4-thiadiazol-2-yl)]-4-(6-oxa-2-azaspiro[3.3]hept-2-yl)-1H-indazol-6-yl}sulfonyl)amino]cyclopropanecarbonitrile]
9 | 20 to 30 µM | 1 to 10 µM | 1 to 10 µM |  | N#CC1(NS(=O)(=O)c2cc(C3CC3)c3cnn(-c4nnc(C(F)F)s4)c3c2)CC1 [Example 6, 1-[({1-[5-(difluoromethyl)(1,3,4-thiadiazol-2-yl)]-4-cyclopropyl-1H-indazol-6-yl}sulfonyl)amino]cyclopropanecarbonitrile]
10 | < 1 µM | ≤ 0.1 µM | ≤ 0.1 µM |  | N#CC1(NS(=O)(=O)c2cc(N3CCN(C(=O)N4CCCC4)CC3)c3cnn(-c4nnc(C(F)F)s4)c3c2)CC1 [Example 57, 1-[({1-[5-(difluoromethyl)(1,3,4-thiadiazol-2-yl)]-4-[4-(pyrrolidinylcarbonyl)-piperazinyl]-1H-indazol-6-yl}sulfonyl)amino]cyclopropanecarbonitrile]
11 | 1 to 10 µM | ≤ 0.1 µM | 1 to 10 µM |  | CN1CC[C@H](C(=O)N2CCN(c3cc(S(=O)(=O)NC4(C#N)CC4)cc4c3cnn4-c3nnc(C(F)F)s3)CC2)C1 [Example 68, 1-{[(4-{4-[((3S)-1-methylpyrrolidin-3-yl)carbonyl]piperazinyl}-1-[5-(difluoromethyl)(1,3,4-thiadiazol-2-yl)]-1H-indazol-6-yl)sulfonyl]amino}cyclopropanecarbonitrile]
12 | 1 to 10 µM | 0.1 to 0.3 µM | ≤ 0.1 µM |  | N#CC1(NS(=O)(=O)c2cc(C3CCC4(CC3)COC4)c3cnn(-c4nnc(C(F)F)s4)c3c2)CC1 [Example 8, 1-[({1-[5-(difluoromethyl)(1,3,4-thiadiazol-2-yl)]-4-(2-oxaspiro[3.5]non-7-yl)-1H-indazol-6-yl}sulfonyl)amino]cyclopropanecarbonitrile]
13 |  | ≤ 0.1 µM | 0.1 to 0.3 µM | 1 to 10 µM | CN1CC2CN(c3cc(S(=O)(=O)NC4(C#N)CC4)cc4c3cnn4-c3nnc(C(F)F)s3)CCN2C1=O (single isomer, unassigned) [Example 72, 1-[({4-(8-methyl-7-oxo-3,6,8-triazabicyclo[4.3.0]non-3-yl)-1-[5-(difluoromethyl)-(1,3,4-thiadiazol-2-yl)]-1H-indazol-6-yl}sulfonyl)amino]cyclopropane carbonitrile]
14 | 1 to 10 µM | 0.3 to 1 µM | 0.1 to 0.3 µM |  | Cc1cccnc1N1CCN(c2cc(S(=O)(=O)NC3(C#N)CC3)cc3c2cnn3-c2nnc(C(F)F)s2)CC1 [Example 79, 1-[({1-[5-(difluoromethyl)(1,3,4-thiadiazol-2-yl)]-4-[4-(3-methyl(2-pyridyl))-piperazinyl]-1H-indazol-6-yl}sulfonyl)amino]cyclopropanecarbonitrile]
15 | < 1 µM | ≤ 0.1 µM | ≤ 0.1 µM |  | N#CC1(NS(=O)(=O)c2cc(N3CCC4(CC3)COC4)c3cnn(-c4nnc(C(F)F)s4)c3c2)CC1 [Example 25, 1-[({1-[5-(difluoromethyl)(1,3,4-thiadiazol-2-yl)]-4-(2-oxa-7-azaspiro[3.5]non-7-yl)-1H-indazol-6-yl}sulfonyl)amino]cyclopropanecarbonitrile]
16 | < 1 µM | ≤ 0.1 µM | ≤ 0.1 µM |  | CC1(C(=O)N2CCN(c3cc(S(=O)(=O)NC4(C#N)CC4)cc4c3cnn4-c3nnc(C(F)F)s3)CC2)CC1 [Example 111, 1-{[(1-[5-(difluoromethyl)(1,3,4-thiadiazol-2-yl)]-4-{4-[(methylcyclopropyl)carbonyl]piperazinyl}-1H-indazol-6-yl)sulfonyl]amino}cyclopropanecarbonitrile]
17 | 1 to 10 µM | ≤ 0.1 µM | ≤ 0.1 µM |  | N#CC1(NS(=O)(=O)c2cc(N3CCN(C(=O)N4CCC4)CC3)c3cnn(-c4nnc(C(F)F)s4)c3c2)CC1 [Example 33, 1-[({4-[4-(azetidinylcarbonyl)piperazinyl]-1-[5-(difluoromethyl)(1,3,4-thiadiazol-2-yl)]-1H-indazol-6-yl}sulfonyl)amino]cyclopropanecarbonitrile]
18 | 1 to 10 µM | 0.1 to 0.3 µM | 0.3 to 1 µM |  | N#CC1(NS(=O)(=O)c2cc(N3CCC4(CCO4)CC3)c3cnn(-c4nnc(C(F)F)s4)c3c2)CC1 [Example 41, 1-[({1-[5-(difluoromethyl)(1,3,4-thiadiazol-2-yl)]-4-(1-oxa-7-azaspiro[3.5]non-7-yl)-1H-indazol-6-yl}sulfonyl)amino]cyclopropanecarbonitrile]
19 | < 1 µM | ≤ 0.1 µM | ≤ 0.1 µM |  | CC(C)(C)C(=O)N1CCN(c2cc(S(=O)(=O)NC3(C#N)CC3)cc3c2cnn3-c2nnc(C(F)F)s2)CC1 [Example 39, 1-[({1-[5-(difluoromethyl)(1,3,4-thiadiazol-2-yl)]-4-[4-(2,2-dimethylpropanoyl)piperazinyl]-1H-indazol-6-yl}sulfonyl)amino]cyclopropanecarbonitrile]
20 | 1 to 10 µM | ≤ 0.1 µM | 0.3 to 1 µM |  | N#CC1(NS(=O)(=O)c2cc(-c3ccncn3)c3cnn(-c4nnc(C(F)F)s4)c3c2)CC1 [Example 15, 1-[({1-[5-(difluoromethyl)(1,3,4-thiadiazol-2-yl)]-4-pyrimidin-4-yl-1H-indazol-6-yl}sulfonyl)amino]cyclopropanecarbonitrile]
21 | 1 to 10 µM | 0.1 to 0.3 µM | 1 to 10 µM |  | CN1CCC2(CCN(c3cc(S(=O)(=O)NC4(C#N)CC4)cc4c3cnn4-c3nnc(C(F)F)s3)CC2)C1 [Example 46, 1-[({1-[5-(difluoromethyl)(1,3,4-thiadiazol-2-yl)]-4-(2-methyl-2,8-diazaspiro[4.5]dec-8-yl)-1H-indazol-6-yl}sulfonyl)amino]cyclopropanecarbonitrile]
22 | < 1 µM | ≤ 0.1 µM | ≤ 0.1 µM |  | CN(C)C(=O)N1CCN(c2cc(S(=O)(=O)NC3(C)CC3)cc3c2cnn3-c2nnc(C(F)F)s2)CC1 [Example 24, [4-(1-[5-(difluoromethyl)(1,3,4-thiadiazol-2-yl)]-6-{[(methylcyclopropyl)amino]sulfonyl}(1H-indazol-4-yl))piperazinyl]-N,N-dimethylcarboxamide]
